# Experimental data as given in US7414041B2 (Trustees Of Tufts College, priority 1991, dated 2008).
# Read-outs that look alike come from different tables or passages of the source.
# What was measured:
# efflux protein = target: T1, efflux protein (Escherichia coli, UniProt P02980); experiment: everted membrane vesicle assay, blocking activity of 13-S-derivatives (Ki); type: biochemical
# T1 sequence (P02980 1-401): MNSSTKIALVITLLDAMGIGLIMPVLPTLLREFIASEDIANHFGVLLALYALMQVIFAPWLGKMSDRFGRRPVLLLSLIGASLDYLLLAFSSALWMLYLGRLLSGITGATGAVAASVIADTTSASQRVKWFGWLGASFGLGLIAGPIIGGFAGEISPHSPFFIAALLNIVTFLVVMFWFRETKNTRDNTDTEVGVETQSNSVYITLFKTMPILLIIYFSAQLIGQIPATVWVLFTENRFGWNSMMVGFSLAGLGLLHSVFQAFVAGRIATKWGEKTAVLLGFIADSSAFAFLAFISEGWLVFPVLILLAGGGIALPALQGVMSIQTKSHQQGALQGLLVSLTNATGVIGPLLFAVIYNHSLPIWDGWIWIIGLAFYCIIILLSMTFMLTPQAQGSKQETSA
# [1] = test system: E. coli Tc^s (MI 300-225); experiment: susceptibility testing MIC/MLC, drug alone; type: cell-based
# [2] = test system: E. faecalis Tc^r (M) (ATCC9790r/Tet M); type: cell-based
# [3] = test system: E. coli Class A Tc^r (DI-299); type: cell-based
# [4] = test system: E. faecalis Tc^r (L) (ATCC9790r/Tet L); type: cell-based; conditions: Tc^r (L)
# [5] = test system: E. coli Class β Tc^r (DI-209); type: cell-based
# [6] = test system: E. faecalis Tc^s (ATCC9790r); experiment: susceptibility testing MIC/MLC, drug alone; type: cell-based
# S. aureus Tc^s (RN450) = experiment: susceptibility testing MIC/MLC, drug alone; type: cell-based
# S. aureus Tc^r (RN4250) = type: cell-based; conditions: Tc^r RN4250
# S. aureus 4250 (Tet K) = experiment: MIC/MLC chart, analog with and without doxycycline; type: cell-based; conditions: for MIC/MLC chart symbol: Chart 6B, doxy = number in box (line above), listed as H analog alone
# E. faecalis ATCC 9790 = experiment: MIC of tetracycline susceptible strains, C5 esters; type: cell-based; conditions: Enterococcus faecalis, ATCC9790; E. faecalis ATCC 9790, alone; read-out: MIC
# [7] = target: T2, TET proteins responsible for tetracycline efflux (Class B tetracycline resistance determinant, strain D1-209) (Escherichia coli, UniProt P02980); experiment: biochemical; parameters: species or system E. coli
# T2 construct: Everted vesicles, to which the TET proteins responsible for tetracycline efflux are attached; endogenous in cells; host or cells: E. coli strain D1-209 (everted membrane vesicles)
# E. faecalis 158 (Tet L) = experiment: MIC/MLC chart, analog with and without doxycycline; type: cell-based; conditions: Chart 6C, doxy = number in box (line above), listed as H analog alone
# S. aureus 450 = experiment: MIC of tetracycline susceptible strains, C5 esters; type: cell-based; conditions: Staphylococcus aureus; S. aureus 450, alone; read-out: MIC
# E. coli ML308 = experiment: MIC of tetracycline susceptible strains, C5 esters; type: cell-based; conditions: Escherichia coli; E. coli ML308, alone; read-out: MIC
# E. faecalis 211 (Tet M) = experiment: MIC/MLC chart, analog with and without doxycycline; type: cell-based; conditions: Chart 6D, doxy = number in box (line above), listed as H analog alone;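 also: broth checkerboard of two-fold drug dilutions, alone and mixed with doxycycline, bacteria near 5×10^5 cells/ml, 18 h incubation at 37 °C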
# E. coli D1-299 (Tet A) = type: cell-based; conditions: Chart 6A, doxy = number in box (line above), listed as H analog alone;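 also: E. coli at roughly 5×10^5 cells/ml in L broth, analog and doxycycline alone or mixed in two-fold dilutions from 50 to under 1 µg/ml, 18 h at 37 °C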
structure (smiles),measurement,setting,value
"CCSCC1c2cccc(O)c2C(=O)C2=C(O)C3(O)C(=O)C(C(N)=O)=C(O)C(N(C)C)C3CC21 (stereo not shown) [Ethyl, 6-deoxy-13-(ethylmercapto) tetracycline]",Ki,efflux protein,0.4 µg/mL
same,MIC,"[1]; Tc^s, 1st column",6 ± 0.26 µg
same,MIC,"[1]; Tc^s, 2nd column",60 µg
same,MIC,[1]; susceptible E. coli,5 µg/mL
same,MIC,[2]; 1st column,25 ± 6 µg
same,MIC,[2]; 2nd column,>200 µg
same,MIC,[3]; 1st column,14 ± 4 µg
same,MIC,[3]; 2nd column,46 ± 6 µg
same,MIC,[4]; 1st column,4 ± 1 µg
same,MIC,[4]; 2nd column,100 ± 0.25 µg
same,MIC,[5]; 1st column,36 ± 16 µg
same,MIC,[5]; 2nd column,60 ± 10 µg
same,MIC,[6]; 1st column,1 ± 0.6 µg
same,MIC,[6]; 2nd column,40 ± 0.25 µg
same,MIC,S. aureus Tc^s (RN450),0.5 ± 0.25 µg
same,MLC,S. aureus Tc^s (RN450); kills 99.9%,4 µg
same,MIC,S. aureus Tc^r (RN4250),5 ± 2 µg
same,MLC,S. aureus Tc^r (RN4250); kills 99.9%,30 ± 10 µg
"C=C1c2cccc(O)c2C(=O)C2=C(O)C3(O)C(=O)C(C(N)=O)=C(O)C(N(C)C)C3C(OC(=O)CC)C12 (stereo not shown) [Cmpd 2, 5 proprionate methacycline]",MIC/MLC chart symbol,S. aureus 4250 (Tet K); analog 1.56 μg/ml,↓ and ◯ and +
same,MIC/MLC chart symbol,S. aureus 4250 (Tet K); analog .195 μg/ml,↓ and +
same,MIC/MLC chart symbol,S. aureus 4250 (Tet K); analog .39 μg/ml,↓ and +
same,MIC/MLC chart symbol,S. aureus 4250 (Tet K); analog .78 μg/ml,◯ and +
same,MIC in combination,S. aureus 4250 (Tet K); with 1.55 μg/ml doxycycline (Chart 6B),1.56 µg/mL
same,MIC in combination,S. aureus 4250 (Tet K); with 6.23 μg/ml doxycycline (Chart 6B),0.78 µg/mL
same,MIC,E. faecalis ATCC 9790,0.8 µg/mL
same,IC50,[7],0.2 µM
same,MIC/MLC chart symbol,E. faecalis 158 (Tet L); analog 1.56 μg/ml,↓ and ◯
same,MIC/MLC chart symbol,E. faecalis 158 (Tet L); analog .195 μg/ml,◯ and +
same,MIC/MLC chart symbol,E. faecalis 158 (Tet L); analog .39 μg/ml,◯ and +
same,MIC/MLC chart symbol,E. faecalis 158 (Tet L); analog .78 μg/ml,◯ and +
same,MIC,S. aureus 450,1.3 µg/mL
same,MIC,E. coli ML308,10 µg/mL
same,MIC/MLC chart symbol,E. faecalis 211 (Tet M); analog 1.56 μg/ml,◯ and +
same,MIC/MLC chart symbol,E. faecalis 211 (Tet M); analog 3.12 μg/ml,+
same,MIC/MLC chart symbol,E. faecalis 211 (Tet M); analog 6.25 μg/ml,↓ and +
same,MIC/MLC chart symbol,E. faecalis 211 (Tet M); analog .195 μg/ml,+
same,MIC/MLC chart symbol,E. faecalis 211 (Tet M); analog .39 μg/ml,+
same,MIC/MLC chart symbol,E. faecalis 211 (Tet M); analog .78 μg/ml,+
same,MIC/MLC chart symbol,E. coli D1-299 (Tet A); analog 1.56 μg/ml,+
same,MIC/MLC chart symbol,E. coli D1-299 (Tet A); analog 3.12 μg/ml,+
same,MIC/MLC chart symbol,"E. coli D1-299 (Tet A); analog 3.12 μg/ml, listed as 5-proprionate methacycline",◯
same,MIC/MLC chart symbol,E. coli D1-299 (Tet A); analog 6.25 μg/ml,+
same,MIC/MLC chart symbol,"E. coli D1-299 (Tet A); analog 6.25 μg/ml, listed as 5-proprionate methacycline",◯
same,MIC/MLC chart symbol,E. coli D1-299 (Tet A); analog 12.5 μg/ml,+
same,MIC/MLC chart symbol,E. coli D1-299 (Tet A); analog 25 μg/ml,+
same,MIC/MLC chart symbol,"E. coli D1-299 (Tet A); analog 25 μg/ml, listed as 5-proprionate methacycline",◯
same,MIC/MLC chart symbol,E. coli D1-299 (Tet A); analog .195 μg/ml,+
same,MIC/MLC chart symbol,E. coli D1-299 (Tet A); analog .39 μg/ml,+
same,MIC/MLC chart symbol,E. coli D1-299 (Tet A); analog .78 μg/ml,+
